Experimental findings from patent US12139487B2, “Compounds and uses thereof” (Foghorn Therapeutics Inc., priority 2022, dated 2024) are described below.

One assay has as its target T1, BRM (Homo sapiens, UniProt P51531).
T1 construct: made in house; host or cells: High Five insect cells
As to the kind of experiment: ATPase catalytic activity assay (ADP-Glo), BRM. The note with it: Table 10; for Ratio (BRG1 IC50 (μM) divided by BRM IC50 (μM)): ATPase assay, selectivity BRG1/BRM; for IC50: ATPase catalytic activity assay (ADP-Glo). It is filed as biochemical. Summed up: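 ADP-Glo luminescence measures ADP produced by BRM ATPase (30 nM) during 1 h at room temperature. ATP is 400 μM, with 20 nM salmon sperm DNA as cofactor. Buffer: 20 mM Tris pH 8, 20 mM MgCl2, 50 mM NaCl, 0.1% Tween-20, 1 mM DTT.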
On the technique in general: ADP-Glo first removes unused ATP, then detects ADP through luciferase.

The target in a further assay is T2, BRG-1 (Homo sapiens, UniProt P51532).
T2 construct: made in house; host or cells: High Five insect cells
T2 sequence (P51532 whole entry): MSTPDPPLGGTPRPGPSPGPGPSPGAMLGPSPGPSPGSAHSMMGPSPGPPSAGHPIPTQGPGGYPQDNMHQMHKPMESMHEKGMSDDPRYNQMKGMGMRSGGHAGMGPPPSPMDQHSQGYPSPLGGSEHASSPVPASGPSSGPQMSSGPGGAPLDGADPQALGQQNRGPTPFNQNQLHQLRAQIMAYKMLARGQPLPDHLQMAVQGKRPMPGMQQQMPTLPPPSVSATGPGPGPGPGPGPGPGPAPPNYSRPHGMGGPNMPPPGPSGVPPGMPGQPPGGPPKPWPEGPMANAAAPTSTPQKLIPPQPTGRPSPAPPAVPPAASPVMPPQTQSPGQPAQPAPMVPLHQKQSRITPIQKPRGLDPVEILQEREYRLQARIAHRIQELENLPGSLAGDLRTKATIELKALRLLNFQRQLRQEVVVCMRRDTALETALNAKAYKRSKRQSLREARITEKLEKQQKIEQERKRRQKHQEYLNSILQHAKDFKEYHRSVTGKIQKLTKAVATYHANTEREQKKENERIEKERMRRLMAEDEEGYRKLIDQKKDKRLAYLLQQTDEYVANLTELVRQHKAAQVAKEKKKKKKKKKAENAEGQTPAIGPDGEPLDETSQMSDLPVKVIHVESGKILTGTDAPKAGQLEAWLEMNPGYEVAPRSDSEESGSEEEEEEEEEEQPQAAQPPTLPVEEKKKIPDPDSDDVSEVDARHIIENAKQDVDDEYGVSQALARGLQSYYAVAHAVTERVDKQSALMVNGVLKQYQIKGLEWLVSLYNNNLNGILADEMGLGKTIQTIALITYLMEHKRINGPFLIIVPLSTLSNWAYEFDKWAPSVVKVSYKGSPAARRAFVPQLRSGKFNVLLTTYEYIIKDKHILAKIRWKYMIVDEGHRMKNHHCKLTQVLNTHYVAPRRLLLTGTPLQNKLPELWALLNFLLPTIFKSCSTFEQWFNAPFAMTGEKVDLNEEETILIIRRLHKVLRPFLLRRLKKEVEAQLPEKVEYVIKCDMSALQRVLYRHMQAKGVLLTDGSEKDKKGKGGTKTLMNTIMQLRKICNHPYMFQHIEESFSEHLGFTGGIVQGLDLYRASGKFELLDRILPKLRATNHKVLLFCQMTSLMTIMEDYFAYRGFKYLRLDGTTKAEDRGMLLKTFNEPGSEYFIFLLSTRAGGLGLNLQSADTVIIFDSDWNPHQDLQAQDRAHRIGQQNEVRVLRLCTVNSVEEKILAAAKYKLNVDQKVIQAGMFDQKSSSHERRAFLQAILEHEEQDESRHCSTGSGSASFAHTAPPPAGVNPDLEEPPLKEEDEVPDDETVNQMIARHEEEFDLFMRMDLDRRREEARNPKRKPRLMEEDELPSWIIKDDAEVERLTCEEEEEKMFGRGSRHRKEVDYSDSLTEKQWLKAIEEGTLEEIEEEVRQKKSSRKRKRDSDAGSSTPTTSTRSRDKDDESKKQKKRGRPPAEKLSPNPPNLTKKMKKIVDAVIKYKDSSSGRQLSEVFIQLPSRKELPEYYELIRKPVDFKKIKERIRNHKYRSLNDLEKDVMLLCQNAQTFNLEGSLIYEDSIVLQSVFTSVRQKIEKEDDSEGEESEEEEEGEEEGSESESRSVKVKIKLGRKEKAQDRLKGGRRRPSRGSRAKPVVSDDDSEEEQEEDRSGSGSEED
Description: ATPase catalytic activity assay (ADP-Glo), BRG-1. The note with it: Table 10, read-out: BRG1 IC50. The format is biochemical. Summed up:
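Luminescence read-out: ADP formed by BRG-1 ATPase is converted to ATP and detected by luciferase. Residual ATP is first removed with ADP-Glo Reagent for 40 min at RT; detection reagent is then incubated 60 min at RT before reading.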

T1 sequence (P51531 whole entry): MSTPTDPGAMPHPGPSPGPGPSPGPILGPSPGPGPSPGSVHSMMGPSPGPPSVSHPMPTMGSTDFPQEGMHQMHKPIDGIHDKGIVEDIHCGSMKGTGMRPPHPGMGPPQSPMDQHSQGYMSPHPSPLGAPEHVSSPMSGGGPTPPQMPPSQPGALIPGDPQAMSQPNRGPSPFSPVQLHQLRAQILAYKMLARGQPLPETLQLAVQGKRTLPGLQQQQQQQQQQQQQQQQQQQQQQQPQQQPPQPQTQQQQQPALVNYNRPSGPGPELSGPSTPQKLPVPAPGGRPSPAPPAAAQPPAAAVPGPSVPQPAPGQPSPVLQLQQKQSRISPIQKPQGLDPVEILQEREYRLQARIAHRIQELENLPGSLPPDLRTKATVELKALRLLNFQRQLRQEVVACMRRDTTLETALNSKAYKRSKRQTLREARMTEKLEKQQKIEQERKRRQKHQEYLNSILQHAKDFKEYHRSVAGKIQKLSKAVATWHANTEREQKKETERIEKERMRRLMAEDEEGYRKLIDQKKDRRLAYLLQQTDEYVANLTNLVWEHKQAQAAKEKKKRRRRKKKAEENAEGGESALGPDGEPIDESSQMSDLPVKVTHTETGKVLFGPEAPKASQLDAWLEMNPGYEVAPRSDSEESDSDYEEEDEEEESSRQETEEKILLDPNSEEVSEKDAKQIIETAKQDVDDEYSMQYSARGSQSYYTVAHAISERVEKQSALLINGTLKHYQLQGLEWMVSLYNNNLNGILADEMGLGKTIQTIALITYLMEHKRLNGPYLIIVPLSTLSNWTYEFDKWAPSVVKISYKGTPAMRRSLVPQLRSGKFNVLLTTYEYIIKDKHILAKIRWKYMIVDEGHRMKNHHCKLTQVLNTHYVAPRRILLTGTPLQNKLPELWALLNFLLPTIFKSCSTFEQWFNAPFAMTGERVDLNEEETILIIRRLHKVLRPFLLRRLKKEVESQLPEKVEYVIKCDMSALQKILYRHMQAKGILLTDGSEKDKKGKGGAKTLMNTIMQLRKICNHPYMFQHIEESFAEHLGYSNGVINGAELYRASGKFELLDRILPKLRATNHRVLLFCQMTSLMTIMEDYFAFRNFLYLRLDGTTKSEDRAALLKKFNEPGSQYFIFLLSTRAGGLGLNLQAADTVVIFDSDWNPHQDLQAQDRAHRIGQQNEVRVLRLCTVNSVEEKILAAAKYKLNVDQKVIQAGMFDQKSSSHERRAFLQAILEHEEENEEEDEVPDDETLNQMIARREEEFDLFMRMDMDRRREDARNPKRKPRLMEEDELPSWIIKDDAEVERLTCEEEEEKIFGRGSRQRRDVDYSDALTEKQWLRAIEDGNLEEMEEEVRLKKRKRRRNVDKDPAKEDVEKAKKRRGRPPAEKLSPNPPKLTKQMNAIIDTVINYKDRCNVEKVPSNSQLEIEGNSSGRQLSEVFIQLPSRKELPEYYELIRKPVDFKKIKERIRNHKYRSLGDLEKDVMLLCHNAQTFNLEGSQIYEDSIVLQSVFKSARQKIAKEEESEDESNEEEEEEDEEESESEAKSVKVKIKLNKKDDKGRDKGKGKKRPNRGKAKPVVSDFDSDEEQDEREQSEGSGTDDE

A word on the IC50: it is the point on the concentration scale where inhibition reaches its midpoint. For `O=C(NCc1cc2nc(N3CCOc4cc(F)cnc43)ccc2cn1)c1cc(F)c2c(c1)S(=O)(=O)[C@@H](F)CCO2` [Compound 102], the “Ratio (BRG1 IC50 (μM) divided by BRM IC50 (μM))” value at BRM worked out at 26.75. In addition, the IC50 turned out to be 3.6 nM against BRM and 95.4 nM on BRG-1.
`[2H]C([2H])([2H])Oc1nc(C(F)F)ccc1-c1ccc2cnc(CNC(=O)c3cc(F)c4c(c3)S(=O)(=O)[C@@H](F)COC4)cc2n1` [Compound 103]: on BRM, the “Ratio (BRG1 IC50 (μM) divided by BRM IC50 (μM))” value was 12.05 and the IC50 was found to be 3.6 nM. Also, on BRG-1, the IC50 amounted to 43.4 nM.
The matching figures for `CO[C@@H]1CN(c2cccc(-c3ccc4cnc(CNC(=O)c5cc(F)c6c(c5)S(=O)(=O)[C@@H](F)CCO6)cc4n3)n2)C[C@H]1C` [Compound 104]: 10.21, 3.6 nM and 42.7 nM.
The matching figures for `CN(CC(F)F)c1cnc2c(c1)OCCN2c1ccc2cnc(CNC(=O)c3cc(F)c4c(c3)S(=O)(=O)[C@@H](F)CCO4)cc2n1` [Compound 105]: 9.68, 3.7 nM and 36.7 nM.
The matching figures for `CCOCc1ccnc2c1OCCN2c1ccc2cnc(CNC(=O)c3cc(F)c4c(c3)S(=O)(=O)[C@@H](F)CCO4)cc2n1` [Compound 108]: 16.69, 3.9 nM and 64.4 nM.
For `O=C(NCc1cc2nc(N3CCOc4cc(N5CC[C@H](F)[C@@H](F)C5)cnc43)ccc2cn1)c1cc(F)c2c(c1)S(=O)(=O)[C@@H](F)CCO2` [Compound 109], at BRM, the “Ratio (BRG1 IC50 (μM) divided by BRM IC50 (μM))” value is listed as 17.52 and the IC50 was determined as 3.9 nM. Further, the IC50 on BRG-1 amounted to 87.2 nM.
With `C#Cc1ccc2c(n1)N(c1ccc3cnc(CNC(=O)c4cc(F)c5c(c4)S(=O)(=O)[C@@H](F)CCO5)cc3n1)CCO2` [Compound 110], at BRM, the “Ratio (BRG1 IC50 (μM) divided by BRM IC50 (μM))” value was 15.35 and the IC50 was 3.9 nM. For the same compound, the IC50 on BRG-1 turned out to be 69.4 nM.
The matching figures for `O=C(NCc1cc2nc(-c3cccc(N4CCC4)n3)ccc2cn1)c1cc(F)c2c(c1)S(=O)(=O)[C@@H](F)COC2` [Compound 111]: 19.81, 3.9 nM and 79.1 nM.
Take `O=C(NCc1cc2nc(N3CCOc4cc(N5CC[C@H](F)[C@@H](F)C5)cnc43)ccc2cn1)c1cc(Cl)c2c(c1)S(=O)(=O)[C@@H](F)COC2` [Compound 112]: at BRM, the “Ratio (BRG1 IC50 (μM) divided by BRM IC50 (μM))” value stood at 14.50 and the IC50 was 3.9 nM. The IC50 on BRG-1 was 57.2 nM.
As to `O=C(NCc1cc2nc(N3CCOc4c(OCC5CC5)ccnc43)ccc2cn1)c1cc(F)c2c(c1)S(=O)(=O)[C@@H](F)CCO2` [Compound 113], the “Ratio (BRG1 IC50 (μM) divided by BRM IC50 (μM))” value on BRM is given as 21.12. Also, the IC50 against BRM turned out to be 4 nM; on BRG-1, 83.9 nM.
The matching figures for `O=C(NCc1cc2nc(-c3cccc(C4CC4)n3)ccc2cn1)c1cc(F)c2c(c1)S(=O)(=O)[C@@H](F)COC2` [Compound 114]: 29.13, 4 nM and 118 nM.
For the compound `C[C@@H]1C[C@H]1c1cnc2c(c1)OCCN2c1ccc2cnc(CNC(=O)c3cc(F)c4c(c3)S(=O)(=O)[C@@H](F)CCO4)cc2n1` [Compound 115], on BRM, the “Ratio (BRG1 IC50 (μM) divided by BRM IC50 (μM))” value is reported as 22.17 and 4 nM corresponded to half-maximal inhibition (IC50). Further, the IC50 at BRG-1 came to 105 nM.
The matching figures for `O=C(NCc1cc2nc(N3CCOc4cc([C@H]5CC5(F)F)cnc43)ccc2cn1)c1cc(F)c2c(c1)S(=O)(=O)[C@@H](F)COC2` [Compound 116]: 12.04, 4 nM and 48.3 nM.
As for `O=C(NCc1cc2nc(-c3cccc(N4CCC4)n3)ccc2cn1)c1cc(F)c2c(c1)S(=O)(=O)[C@@H](F)CCO2` [Compound 117], at BRM, the “Ratio (BRG1 IC50 (μM) divided by BRM IC50 (μM))” value was 21.61 and the IC50 turned out to be 4 nM. Further, the IC50 on BRG-1 turned out to be 87.1 nM.
The matching figures for `O=C(NCc1cc2cc(-c3cccc(C4CC4)n3)ccc2cn1)c1cc(F)c2c(c1)S(=O)(=O)[C@@H](F)COC2` [Compound 118]: 19.47, 4 nM and 63 nM.
The matching figures for `O=C(NCc1cc2nc(N3CCOc4ccc(N5CCC(F)(F)C5)nc43)ccc2cn1)c1cc(F)c2c(c1)S(=O)(=O)[C@@H](F)CCO2` [Compound 119]: 10.33, 4.1 nM and 42.2 nM.
The matching figures for `Cc1ccc(-c2ccc3cnc(CNC(=O)c4cc(F)c5c(c4)S(=O)(=O)[C@@H](F)CCO5)cc3n2)c(OC(F)F)n1` [Compound 120]: 24.03, 4.1 nM and 98.3 nM.
Regarding `O=C(NCc1cc2nc(N3CCOc4cc(N5C[C@@H](F)[C@H](F)C5)cnc43)ccc2cn1)c1cc(Cl)c2c(c1)S(=O)(=O)[C@@H](F)COC2` [Compound 121], on BRM, the “Ratio (BRG1 IC50 (μM) divided by BRM IC50 (μM))” value was determined as 13.86 and the concentration for half-maximal inhibition (IC50) is 4.1 nM. In addition, the IC50 at BRG-1 was determined as 56.7 nM.
Turning to `COc1nc(C(F)F)ccc1-c1ccc2cnc([C@H](C)NC(=O)c3ccc4c(c3)S(=O)(=O)[C@@H](F)CCOC4)cc2n1` [Compound 122], the “Ratio (BRG1 IC50 (μM) divided by BRM IC50 (μM))” value on BRM was found to be 10.93. Further, the IC50 on BRM was 4.2 nM; at BRG-1, 45.9 nM.
On to `O=C(NCc1cc2nc(N3CCOc4ccc([C@@H]5C[C@H]5C(F)F)nc43)ccc2cn1)c1cc(F)c2c(c1)S(=O)(=O)[C@@H](F)CCO2` [Compound 123], for which, at BRM, the “Ratio (BRG1 IC50 (μM) divided by BRM IC50 (μM))” value is 12.84 and the IC50 was determined as 4.2 nM. Moreover, the IC50 on BRG-1 was found to be 50.6 nM.
The matching figures for `O=C(NCc1cc2nc(N3CCOc4cc(N5C[C@@H](F)[C@@H](F)C5)cnc43)ccc2cn1)c1cc(F)c2c(c1)S(=O)(=O)[C@@H](F)CCO2` [Compound 124]: 15.93, 4.3 nM and 74.9 nM.
The matching figures for `O=C(NCc1cc2nc(N3CCOc4ccc([C@H]5C[C@@H]5C(F)F)nc43)ccc2cn1)c1cc(F)c2c(c1)S(=O)(=O)[C@@H](F)CCO2` [Compound 125]: 19.09, 4.3 nM and 81.5 nM.
For the compound `CCOc1ccnc2c1OCCN2c1ccc2cnc(CNC(=O)c3cc(F)c4c(c3)S(=O)(=O)[C@@H](F)CCO4)cc2n1` [Compound 129], the “Ratio (BRG1 IC50 (μM) divided by BRM IC50 (μM))” value at BRM is 18.60. The half-maximal inhibitory concentration (IC50) at BRM was 4.5 nM; on BRG-1 it was 111 nM.
On to `O=C(NCc1cc2nc(N3CCOc4cc(C56CC(C5)C6)cnc43)ccc2cn1)c1cc(F)c2c(c1)S(=O)(=O)[C@@H](F)CCO2` [Compound 130], for which, on BRM, the “Ratio (BRG1 IC50 (μM) divided by BRM IC50 (μM))” value was 15.94 and the IC50 amounted to 4.5 nM. In addition, the half-inhibitory concentration (IC50) at BRG-1 was 71.1 nM.
As to `COc1nc(C(F)F)ccc1-c1ccc2cnc(CNC(=O)c3cc(C)c4c(c3)S(=O)(=O)[C@@H](F)COC4)cc2n1` [Compound 131], on BRM, the “Ratio (BRG1 IC50 (μM) divided by BRM IC50 (μM))” value turned out to be 17.91 and the IC50 turned out to be 4.5 nM. Further, on BRG-1, the IC50 stood at 70.8 nM.
